According to patent US20130123222A1, “Synergistic Anti-Cancer Activity of SR16388 with Anti-Mitotic Drugs” (SRI INTERNATIONAL, INC., priority 2011, published 2013):

Assays:
[1] = tested on: various cancer cell lines; assay: 11×7 synergism hit rate over all cell lines (by algorism); format: cell-based; settings: for % Hit rate: combination with SR16388, identified by algorism, all cell lines; for interaction with SR16388 in 11×7 experiments: in combination with SR16388
Text: (§1) SR16388 was synthesized in house.
(§2) Within the same type of cancer cells, some cell lines have more synergistic hits than others. Melanoma and breast cancer cell lines had the highest hit rate.

HOP92 = assay: 11×7 synergism hit rate; format: cell-based; settings: NSCLC HOP92, combination with SR16388
Text: as §1, §2

SF268 = assay: 11×7 synergism hit rate; format: cell-based; settings: CNS Cancer SF268, combination with SR16388
Text: as §1, §2

HCT15 = assay: 11×7 synergism hit rate; format: cell-based; settings: Colon Cancer HCT15, combination with SR16388
Text: as §1, §2

NCIH522 = assay: 11×7 synergism hit rate; format: cell-based; settings: NSCLC NCIH522, combination with SR16388
Text: as §1, §2

SF295 = assay: 11×7 synergism hit rate; format: cell-based; settings: CNS Cancer SF295, combination with SR16388
Text: as §1, §2

RPMI8226 = assay: 11×7 synergism hit rate; format: cell-based; settings: Leukemia RPMI8226, combination with SR16388
Text: as §1, §2

IGROV1 = assay: 11×7 synergism hit rate; format: cell-based; settings: Ovarian Cancer IGROV1, combination with SR16388
Text: as §1, §2

COLO205 = assay: 11×7 synergism hit rate; format: cell-based; settings: Colon Cancer COLO205, combination with SR16388
Text: as §1, §2

HCC2998 = assay: 11×7 synergism hit rate; format: cell-based; settings: Colon Cancer HCC2998, combination with SR16388
Text: as §1, §2

SN12C = assay: 11×7 synergism hit rate; format: cell-based; settings: Renal Cancer SN12C, combination with SR16388
Text: as §1, §2

HL60 = assay: 11×7 synergism hit rate; format: cell-based; settings: Leukemia HL60, combination with SR16388
Text: as §1, §2

UACC62 = assay: 11×7 synergism hit rate; format: cell-based; settings: Melanoma UACC62, combination with SR16388
Text: as §1, §2

MDAMB435 = assay: 11×7 synergism hit rate; format: cell-based; settings: Melanoma MDAMB435, combination with SR16388
Text: as §1, §2

NCIH23 = assay: 11×7 synergism hit rate; format: cell-based; settings: NSCLC NCIH23, combination with SR16388
Text: as §1, §2

U251 = assay: 11×7 synergism hit rate; format: cell-based; settings: CNS Cancer U251, combination with SR16388
Text: as §1, §2

MDAMB231 = assay: 11×7 synergism hit rate; format: cell-based; settings: Breast Cancer MDAMB231, combination with SR16388
Text: as §1, §2

NCIH322M = assay: 11×7 synergism hit rate; format: cell-based; settings: NSCLC NCIH322M, combination with SR16388
Text: as §1, §2

SKMEL5 = assay: 11×7 synergism hit rate; format: cell-based; settings: Melanoma SKMEL5, combination with SR16388
Text: as §1, §2

SKMEL28 = assay: 11×7 synergism hit rate; format: cell-based; settings: Melanoma SKMEL28, combination with SR16388
Text: as §1, §2

PCS = assay: 11×7 synergism hit rate; format: cell-based; settings: Prostate Cancer PCS, combination with SR16388
Text: as §1, §2

TK10 = assay: 11×7 synergism hit rate; format: cell-based; settings: Renal Cancer TK10, combination with SR16388
Text: as §1, §2

DU145 = assay: 11×7 synergism hit rate; format: cell-based; settings: Prostate Cancer DU145, combination with SR16388
Text: as §1, §2

T47D = assay: 11×7 synergism hit rate; format: cell-based; settings: Breast Cancer T47D, combination with SR16388
Text: as §1, §2

SNB75 = assay: 11×7 synergism hit rate; format: cell-based; settings: CNS Cancer SNB75, combination with SR16388
Text: as §1, §2

UACC257 = assay: 11×7 synergism hit rate; format: cell-based; settings: Melanoma UACC257, combination with SR16388
Text: as §1, §2

HOP62 = assay: 11×7 synergism hit rate; format: cell-based; settings: NSCLC HOP62, combination with SR16388
Text: as §1, §2

SR = assay: 11×7 synergism hit rate; format: cell-based; settings: Leukemia SR, combination with SR16388
Text: as §1, §2

MCF7 = assay: 11×7 synergism hit rate; format: cell-based; settings: Breast Cancer MCF7, combination with SR16388
Text: as §1, §2

CCRFCEM = assay: 11×7 synergism hit rate; format: cell-based; settings: Leukemia CCRFCEM, combination with SR16388
Text: as §1, §2

ACHN = assay: 11×7 synergism hit rate; format: cell-based; settings: Renal Cancer ACHN, combination with SR16388
Text: as §1, §2

NCIH460 = assay: 11×7 synergism hit rate; format: cell-based; settings: NSCLC NCIH460, combination with SR16388
Text: as §1, §2

ADRRES = assay: 11×7 synergism hit rate; format: cell-based; settings: Ovarian Cancer ADRRES, combination with SR16388
Text: as §1, §2

OVCAR8 = assay: 11×7 synergism hit rate; format: cell-based; settings: Ovarian Cancer OVCAR8, combination with SR16388
Text: as §1, §2

BT549 = assay: 11×7 synergism hit rate; format: cell-based; settings: Breast Cancer BT549, combination with SR16388
Text: as §1, §2

NCIH226 = assay: 11×7 synergism hit rate; format: cell-based; settings: NSCLC NCIH226, combination with SR16388
Text: as §1, §2

7860 = assay: 11×7 synergism hit rate; format: cell-based; settings: Renal Cancer 7860, combination with SR16388
Text: as §1, §2

[2] = tested on: panel of 48 to 60 cell lines; assay: 5×4 combination screen with SR16388, CellTiter-Glo viability; synergy by pattern recognition
Protocol: Cells were treated with compounds alone or in combination for three days and CellTiter-Glo® Luminescent Cell Viability Assay (Promega Corp.) was used as the endpoint to measure cell viability.
Cells were cultured in DMEM with 10% fetal bovine serum and used between passage 2 and passage 20. Cells were harvested on Day-1 (FIG. 1A) and re-supspended to the corresponding seeding density and seeded with Wellmate (ThermoFisher) to 384 plates (BD or GBO).
40 mM Compound stocks in 100% DMSO were made. Master plates were made with Janus (PerkinElmer), then further diluted and added to the cell plates with Matrix Platemate (Thermo) on Day 0.
CellTiter-Glo® Luminescent Cell Viability Assay (Promega Corp.) was used to measure ATP as an indicator of viable cells on Day 3 using Envision (PerkinElmer) and back up reader Analyst HT (MDS) and Gen5 (BioTek).
Single point, 5×4 checkque board platemap was used in the initial screening.
Relative Luminescent Units (RLU) were plotted against corresponding drug concentrations and fitted with standard four parameter sigmoidal curve with custom coded R program or Calcusyn (Biosoft, Cambridge, UK).

[3] = in combination with SR16388, 5x4-T1, pattern recognition, of 60 cell lines incl. no data

CC[C@]1(O)C[C@@H]2CN(CCc3c([nH]c4ccccc34)[C@@](C(=O)OC)(c3cc4c(cc3OC)N(C)[C@H]3[C@@](O)(C(=O)OC)[C@H](OC(C)=O)[C@]5(CC)C=CCN6CC[C@]43[C@@H]65)C2)C1 [Vinblastine] was tested, and the “% Hit rate” value [1] was 4.94%, the “interaction with SR16388 in 11×7 experiments” value [1] was “synergistic effect” and the “% Hit rate” value (HOP92) was 6%. For the same compound, the “% Hit rate” value (SF268) was 6%, the “% Hit rate” value (HCT15) was 10% and the “% Hit rate” value (NCIH522) was 4%. For the same compound, the “% Hit rate” value (SF295) was 0%, the “% Hit rate” value (RPMI8226) was 0% and the “% Hit rate” value (IGROV1) was 0%. The “% Hit rate” value (COLO205) was 12%, the “% Hit rate” value (HCC2998) was 6% and the “% Hit rate” value (SN12C) was 1%. For the same compound, the “% Hit rate” value (HL60) was 16%, the “% Hit rate” value (UACC62) was 10% and the “% Hit rate” value (MDAMB435) was 4%. The “% Hit rate” value (NCIH23) was 4%, the “% Hit rate” value (U251) was 0% and the “% Hit rate” value (MDAMB231) was 1%. For the same compound, the “% Hit rate” value (NCIH322M) was 3%, the “% Hit rate” value (SKMEL5) was 5% and the “% Hit rate” value (SKMEL28) was 8%. The “% Hit rate” value (PCS) was 1%, the “% Hit rate” value (TK10) was 4% and the “% Hit rate” value (DU145) was 0%. The “% Hit rate” value (T47D) was 9%, the “% Hit rate” value (SNB75) was 3% and the “% Hit rate” value (UACC257) was 6%. For the same compound, the “% Hit rate” value (HOP62) was 0%, the “% Hit rate” value (SR) was 0% and the “% Hit rate” value (MCF7) was 17%. The “% Hit rate” value (CCRFCEM) was 3%, the “% Hit rate” value (ACHN) was 3% and the “% Hit rate” value (NCIH460) was 16%. For the same compound, the “% Hit rate” value (ADRRES) was 0%, the “% Hit rate” value (OVCAR8) was 5% and the “% Hit rate” value (BT549) was 1%. The “% Hit rate” value (NCIH226) was 8% and the “% Hit rate” value 7860 was 10%.

For CC(=O)O[C@@]12CO[C@@H]1C[C@H](O)[C@@]1(C)C(=O)[C@H](O)C3=C(C)[C@@H](OC(=O)[C@H](O)[C@@H](NC(=O)OC(C)(C)C)c4ccccc4)C[C@@](O)([C@@H](OC(=O)c4ccccc4)[C@H]21)C3(C)C [Docetaxel], the “% Hit rate” value [1] was 10.69%, the “interaction with SR16388 in 11×7 experiments” value [1] was “synergistic effect” and the “% Hit rate” value (HOP92) was 4%. The “% Hit rate” value (SF268) was 18%, the “% Hit rate” value (HCT15) was 12% and the “% Hit rate” value (NCIH522) was 8%. The “% Hit rate” value (SF295) was 8%, the “% Hit rate” value (RPMI8226) was 1% and the “% Hit rate” value (IGROV1) was 3%. The “% Hit rate” value (COLO205) was 35%, the “% Hit rate” value (HCC2998) was 6% and the “% Hit rate” value (SN12C) was 8%. For the same compound, the “% Hit rate” value (HL60) was 21%, the “% Hit rate” value (UACC62) was 16% and the “% Hit rate” value (MDAMB435) was 14%. For the same compound, the “% Hit rate” value (NCIH23) was 5%, the “% Hit rate” value (U251) was 12% and the “% Hit rate” value (MDAMB231) was 10%. The “% Hit rate” value (NCIH322M) was 14%, the “% Hit rate” value (SKMEL5) was 10% and the “% Hit rate” value (SKMEL28) was 31%. For the same compound, the “% Hit rate” value (PCS) was 3%, the “% Hit rate” value (TK10) was 10% and the “% Hit rate” value (DU145) was 1%. The “% Hit rate” value (T47D) was 19%, the “% Hit rate” value (SNB75) was 5% and the “% Hit rate” value (UACC257) was 18%. For the same compound, the “% Hit rate” value (HOP62) was 1%, the “% Hit rate” value (SR) was 0% and the “% Hit rate” value (MCF7) was 19%. The “% Hit rate” value (CCRFCEM) was 12%, the “% Hit rate” value (ACHN) was 4% and the “% Hit rate” value (NCIH460) was 31%. For the same compound, the “% Hit rate” value (ADRRES) was 3%, the “% Hit rate” value (OVCAR8) was 6% and the “% Hit rate” value (BT549) was 5%. The “% Hit rate” value (NCIH226) was 19%, the “% Hit rate” value 7860 was 10% and the “interaction with SR16388 in the screen of 30 cancer therapeutic agents” value [2] was “Synergistic anti-proliferation”. For the same compound, the “no effect (number of cell lines)” value [2, 3] was 51, the “synergy (number of cell lines)” value [2, 3] was 7 and the “% synergy” value ([2]; in combination with SR16388, 5x4-T1, share of cell lines with data) was 12%.
